In patent publication US20110136916A1, “6-SHOGAOL FOR USING IN A METHOD FOR THE TREATMENT OF LEUKEMIA” (China Pharmaceutical University, priority 2009, published 2011):
Like-named read-outs stand apart in the source and are kept apart here.

Experiments:
[1] = test system: human acute T cell leukemic cell Jurkat; assay: MTT anti-proliferation, Jurkat; type: cell-based; conditions: for growth inhibition (activities of cells vs control): 1-20 μM; for IC50: MTT
Procedure: (§1) Cells in logarithmic growth phase were collected and then inoculated in 1˜2×10^4 cells/well in a 96-well plate respectively according to the sizes of cells and whether they attached to the wall, the cells were centrifuged and the supernatant was removed after growing for 24 hours, and then drug administration was carried out according to the groups as below: the drug group and the drug free group were set up for tumor cells (the concentrations ranged from 1˜20 μM), 5 or 6 duplicates were set for each group and the cells were incubated for 24 or 72 hours. The supernatant was removed and 100 μl serum free culture solution containing 0.5 mg/ml MTT (tetrazolium) was added for further incubation for 4 hours, subsequently 100 μl DMSO (dimethyl sulfoxide) was added and the plate was kept on the micro-shaker for 10 minutes, and the OD value was determined on a micro-plate reader at the wavelength of 570 nm. Evaluations on the toxicity were carried out on normal human cell line LO-2 and each test was repeated for three times.

[2] = test system: human acute myelocytic leukemia cell U937; assay: MTT anti-proliferation, U937; type: cell-based; conditions: for IC50: U937, MTT, n = 3; for growth inhibition (activities of cells vs control): U937, 1-20 μM
Procedure: as §1

[3] = test system: human leukemia Jurkat cells; assay: Annexin V/PI flow cytometry apoptosis of Jurkat cells; type: cell-based; conditions: for Apoptotic rate: Jurkat
Procedure: Jurkat cells in logarithmic growth phase of growth were collected (3−10×10^5) and inoculated to a 24-well plate in 3×10^5 cells/mL/well, then after incubation for 24 hours, different concentrations of 6-shogaol (0, 1, 2.5, 5, 10 and 15 μM) were added for treatment for 24 hours and also 6-shogaol at a concentration of 15 μM were added for treatment at different durations (0, 2, 4, 6, 12 and 24 h). After reacting with 6-shogaol under different conditions, the cells were collected into 1 mL centrifuge tubes and then centrifuged at 500 rpm (or 100×g) for 5 minutes, the supernatant was removed and the cells were rinsed with 0.01 M PBS at 500 rpm (or 100×g) for 5 minutes twice, and the flow cytometry analysis (Becton Dickinson FACScan Flow Cytometer) was carried out after adding binding solution and staining according to the directions for use of Annexin V/PI double staining kit (BD Company). The FACS data were analyzed by professional operators of the flow cytometer by using FLOWJO software (Tree Star, Calif.) software, the apoptotic rate was counted by the sum of early apoptosis and late apoptosis, and the results were shown in Table 2 and Table 3.

[4] = test system: human colon carcinoma COLO 205 cells; conditions: read-out: IC50 for inhibiting the growth of COLO 205 cells; cited from earlier work
[5] = test system: human ovarian cancer SK-OV-3 cells; conditions: cited from earlier work
[6] = test system: melanoma SK-MEL-2 cells; conditions: cited from earlier work
[7] = test system: colon carcinoma HCT15 cells; conditions: cited from earlier work
[8] = test system: ddY line mice; conditions: cited from earlier work
[9] = cited from earlier work

For `CCCCC/C=C/C(=O)CCc1ccc(O)c(OC)c1` [6-shogaol], which “growth inhibition (activities of cells vs control)” value ([1]; 24 hours, FIG. 3) is on record?
Its value is “significantly decreased”.

And the “growth inhibition (activities of cells vs control)” value ([1]; 72 hours, FIG. 7)?
Its value is “significantly decreased”.

What about the IC50 ([1]; Homo sapiens, 24 h, 24 hours, n = 3, read-out: Mean IC50 after 24 hours) of the same compound?
Its IC50 is < 10 µM.

What about the IC50 ([1]; Homo sapiens, 72 h, 72 hours, n = 3, read-out: Mean IC50 after 72 hours) of the same compound?
The IC50 was < 5 µM.

And the IC50 ([1]; 24 hours, n = 3, read-out: Mean IC50 after 24 hours)?
The IC50 was 5.6 ± 0.4 µM.

What about the IC50 ([1]; 72 hours, n = 3, read-out: Mean IC50 after 72 hours) of the same compound?
Its IC50 is 3.3 ± 0.3 µM.

And the IC50 ([2]; Homo sapiens, U-937, 24 h, 24 hours, read-out: Mean IC50 after 24 hours)?
The IC50 was < 10 µM.

And the IC50 ([2]; Homo sapiens, U-937, 72 h, 72 hours, read-out: Mean IC50 after 72 hours)?
Its IC50 is < 5 µM.

What about the “growth inhibition (activities of cells vs control)” value ([2]; 24 hours, FIG. 4) of the same compound?
Its value is “significantly decreased”.

What about the “growth inhibition (activities of cells vs control)” value ([2]; 72 hours, FIG. 8) of the same compound?
Its value is “significantly decreased”.

And the IC50 ([2]; 24 hours, read-out: Mean IC50 after 24 hours)?
Its IC50 is 7.63 ± 0.47 µM.

What about the IC50 ([2]; 72 hours, read-out: Mean IC50 after 72 hours) of the same compound?
Its IC50 is 4.93 ± 0.7 µM.

And the Apoptotic rate ([3]; 1 μM, 24 hours, n = 3)?
Its Apoptotic rate is 11.2 ± 0.9bd %.

What about the Apoptotic rate ([3]; 2.5 μM, 24 hours, n = 3) of the same compound?
The Apoptotic rate was 17.8 ± 1.4bd %.

What about the Apoptotic rate ([3]; 5 μM, 24 hours, n = 3) of the same compound?
Its Apoptotic rate is 25.9 ± 3.2bc %.

What about the Apoptotic rate ([3]; 10 μM, 24 hours, n = 3) of the same compound?
Its Apoptotic rate is 48.7 ± 3.1bd %.

And the Apoptotic rate ([3]; 15 μM, 2 hours, n = 3)?
The Apoptotic rate was 7.7 ± 2.1%.

And the Apoptotic rate ([3]; 15 μM, 4 hours, n = 3)?
Its Apoptotic rate is 14.6 ± 2.5ac %.

What about the Apoptotic rate ([3]; 15 μM, 6 hours, n = 3) of the same compound?
The Apoptotic rate was 28.5 ± 3.3bd %.

What about the Apoptotic rate ([3]; 15 μM, 12 hours, n = 3) of the same compound?
Its Apoptotic rate is 45.3 ± 2.6bd %.

What about the Apoptotic rate ([3]; 15 μM, 24 hours, n = 3 (Table 2)) of the same compound?
The Apoptotic rate was 73.2 ± 2.8bd %.

What about the Apoptotic rate ([3]; 15 μM, 24 hours, n = 3 (Table 3)) of the same compound?
The Apoptotic rate was 72.3 ± 2.4bd %.

What about the “induction of apoptosis of Jurkat cells (t-test)” value ([3]; summary statement, concentration and time dependent) of the same compound?
Its value is “significantly induce the apoptosis”.

What about the IC50 [4] of the same compound?
The IC50 was > 60 µM.

And the anti-tumor activities [5]?
The anti-tumor activities was “certain anti-tumor activities”.

And the anti-tumor activities [6]?
The anti-tumor activities was “certain anti-tumor activities”.

What about the anti-tumor activities [7] of the same compound?
The anti-tumor activities was “certain anti-tumor activities”.

And the LD50 ([8]; intraperitoneal injection)?
The LD50 was “about 109.2 mg/kg”.

What about the LD50 ([8]; intravenous injection) of the same compound?
The LD50 was “about 50.9 mg/kg”.

What about the LD50 ([8]; oral administration) of the same compound?
The LD50 was 687 mg/kg.

What about the solubility in ethanol ([9]; ethanol) of the same compound?
The solubility in ethanol was “soluble”.

And the solubility in water ([9]; water)?
The solubility in water was “insoluble”.
